Key:
[1] = test system: MHC class II molecules on fixed or non-fixed HLA-DR4 transgenic mouse splenocytes (hybridoma SC3 readout); assay: Fixed APC T-cell hybridoma screen; assay type: cell-based; details: co-culture with formaldehyde fixed and non-fixed HLA-DR4 splenocytes, 48 h
Description: Splenocytes from HLA-DR4 transgenic mice were formaldehyde fixed by the following protocol performed at room temperature; 5 min incubation with 0.5% w/v formaldehyde in PBS at 1×10^6 cells/mL quenched by addition of an equal volume of 0.4 M glycine in PBS solution for a further 5 min, before three washes with cold PBS. T-cell hybridoma screens were set up using 1×10^5 hybridomas and either 2×10^5 formaldehyde fixed APCs or 2×10^5 non-fixed APCs for 48 h co-culture with stimulant or control and responses measured by IL-2 secretion.
The next step was to test if GAD65 P10.5.C+1.6K (P10Sol; SEQ ID NO 23) could bind to: (i) MHC class II molecules without antigen processing and, (ii) to steady-state CD11c^+ APCs. These properties are good indicators of whether a peptide can induce tolerance and be characterised as an apitope (Shepard et al., 2021). Formaldehyde fixation of splenocytes inhibits antigen processing and so to test whether GAD65 P10Sol could bind directly to cell-surface MHC class II without antigen processing, GAD65 P10-specific hybridoma SC3 was co-cultured with fixed or non-fixed splenocytes from HLA-DR4 transgenic mice. […] To test whether P10Sol could bind to steady-state CD11c^+ APCs in vivo, HLA-DR4 transgenic mice were injected with 80 μg of P10Sol or PBS, with CD11c^+ splenocytes isolated 1 h later and co-cultured with GAD65 P10 hybridomas SC3 or SC22. […]

HLA-DR4 transgenic mice = assay: Peptide immunogenicity in HLA-DR transgenic mice (immunisation); assay type: in vivo, mouse; details: HLA-DR4 transgenic mice (HLA-DRB1*04:01); data not shown
Description: (§1) HLA-DR4 transgenic mice were injected subcutaneously with Complete Freund's Adjuvant (CFA) and 100 μg of GAD65 P10 30-mer. After 10 days, splenocytes were isolated and re-stimulated with GAD65 P10 30-mer for a further 4-5 days before fusion with hypoxanthine-aminopterin-thymidine (HAT) sensitive BW5147 cells using polyethylene glycol (PEG). Fused hybridomas were expanded in HAT selection media before antigen-specific screening. Co-cultures of 1×10^5 hybridomas and 2×10^5 Priess cells (an Epstein-Barr Virus (EBV) transformed DR4 (DRB1*04:01) expressing human cell line (ECACC 86052111)) as antigen presenting cells (APCs) were incubated for 48 h in a 96-well plate with peptide, whole GAD65 protein, or media only. Antigen-specific responses were determined by IL-2 secretion into culture supernatant by ELISA assay (BioLegend 431004). Hybridomas that proliferated in response to both GAD65 protein and GAD65 30-mer were single cell cloned by limiting dilution.
Generation of hybridomas that respond to both the GAD65 protein and the P10 30-mer peptide means that these hybridomas can recognise naturally processed peptide presented by APCs—a property shown to be critical for successful peptide immunotherapy design (Anderton et al 2002).

[2] = test system: GAD65 P10-specific T-cell hybridomas; assay: T-cell hybridoma screen with Priess cells as APCs, IL-2 ELISA; assay type: cell-based, mouse; details: hybridoma multi-clone 6 with HLA-DRB1*04:01 expressing APCs
Description: as §1
Six 15-mers that spanned the parent 30-mer amino acid sequence were generated by 3 amino acid shifts from the N-terminus toward the C-terminus.

Question: “DAAWGGGLLMSRKHKWKLSGVERANSVTWN [P10 30-mer]” was tested. Which “IL-2 response from hybridoma SC3” value [1] did it give?
Answer: strong IL-2 responses

Question: What about the response to immunisation (HLA-DR4 transgenic mice) of the same sequence?
Answer: responded well

Question: What about the “hybridoma IL-2 response” value [2] of the same sequence?
Answer: could respond
